{
  "source": "patent US4870002A",
  "about": "“Method of prevention of oxidative injury to cells” (priority 1985, dated 1989)",
  "key": {"porcine RBCs": {"tested_on": "porcine RBCs", "assay": "Nonspecific binding of Lu-BSA to porcine RBCs (base-activated chemiluminescence)", "assay_type": "cell-based, pig", "conditions": "for activation at 1490 µM / inhibition at 1490 µM: Sus scrofa; for activation at 1490 µM: read-out: Percent difference from control", "description": "Blood was collected from Landrace-Duroc swine from a closed herd. Pigs from this herd had previously expressed episodes of porcine stress syndrome (malignant hyperthermia) following halothane anesthesia. The blood was collected into acidic citrated dextrose solution in standard blood bags. The blood was diluted 1:10 in phosphate (0.1M) buffered saline (PBS), pH 7.4, in 10 ml aliquots, centrifuged in a clinical centrifuge, and the erythrocytes were resuspended in fresh PBS. The cells were stored at 4° C. until used in the various assays. The post-collection chronological age of the RBCs used for a particular assay is noted in the results for each assay. The cells were counted in an automated cell counter (Coulter ZBI, Coulter Electronics, Inc., Hialeah, Fla. 33010). Nonspecific binding of Lu-BSA to porcine RBCs was measured following treatment with hydrogen peroxide, pyruvate, and/or 3-amino-L-tyrosine at 4°, 37°, or 45° C. The exposure times for those agents were 15 min, 30 min, or 72 hours. The reagents were removed by centrifugation. Three binding protocols were followed: (1) 0.25 ml of 1:20 RBCs (19 days post collection) were incubated with 0.25 ml of 1 mg/ml Lu-BSA in PBS, pH 6.9, for 30 min at 37° C. and washed (Table 1); (2) 0.05 ml of packed RBCs (less than 24 hours post collection) were resuspended in 0.2 ml of the Lu-BSA solution and incubated overnight at 4° C. […] The cells in all three protocols were washed once in PBS, pH 7.4, and resuspended in PBS to final dilutions of 1:20 for (1) and 1:30 for (2) and (3). Following this preparation, 100 μl of each cell suspension were added to 500 μl of PBS, pH 7.4, in a scintillation vial. The vial was placed in the photometer and the solution was activated by the addition of 100 μl 0.1N NaOH. The settings for the photometer were as previously described for the Con A-Lu-BSA."}, "pig RBCs": {"tested_on": "pig RBCs", "assay": "Thermal fragility / hemolysis of RBCs (410 nm absorbance of supernatant)", "assay_type": "cell-based", "description": "Blood was collected from Landrace-Duroc swine from a closed herd. Pigs from this herd had previously expressed episodes of porcine stress syndrome (malignant hyperthermia) following halothane anesthesia. The blood was collected into acidic citrated dextrose solution in standard blood bags. The blood was diluted 1:10 in phosphate (0.1M) buffered saline (PBS), pH 7.4, in 10 ml aliquots, centrifuged in a clinical centrifuge, and the erythrocytes were resuspended in fresh PBS. The cells were stored at 4° C. until used in the various assays. The post-collection chronological age of the RBCs used for a particular assay is noted in the results for each assay. The cells were counted in an automated cell counter (Coulter ZBI, Coulter Electronics, Inc., Hialeah, Fla. 33010).\nRed blood cells were heated in 1 or 1.5 ml aliquots of PBS pH 7.4 with or without additional reagents in cellulose nitrate or polypropylene centrifuge tubes. Two concentrations of cells were used as indicated in the results. Heating was accomplished by three methods: microwave radiation, hot air, or water bath heating. The microwave device was a circularly polarized waveguide powered by a 1-kw S-band (microwave) amplifier (Model 10704,MCL, Inc., La Grange, Ill.). The heating of the sample at a specific absorption rate (SAR) of 91±4 W/kg (continuous wave (CW), 2450MHz) was offset by an air-cooling system that maintained a constant temperature. This system has been previously described in greater detail in Kiel, J. L. and D. N. Erwin, \"Microwave and thermal interactions with oxidative hemolysis\", 16 Physiol. Chem. Phys. Med. NMR, 317-323 (1984), which reference is hereby incorporated in its entirety by this specific reference thereto. […] The temperature was held within ±0.2° C. by this system. In the absence of microwave radiation, the temperature was held constant by hot air alone. The microwave/hot air system was brought to 37° C. for 15 min. prior to raising the temperature to 43° C. by microwaves or hot hot air. The water bath heating held the temperature within ±0.5° C. Heating times were 10, 15, or 30 min. The temperatures examined were 37°, 43°, 45°, or 48°.\nHemoglobin released into the supernatants of the heated cells were determined by the method described in the above-incorporated reference of Kiel and Erwin (1984). In brief, the supernatants were collected following centrifugation in a clinical centrifuge, diluted 1:2 in PBS, pH 7.4, and the optical absorbances at 410 nm were determined in a dual beam spectrophotometer. Pyruvate, lactate, inosine, hydrogen peroxide, mimosine, and/or 3-amino-L-tyrosine were added to the samples as indicated in Tables 1-3 and 9-12. All reagents were diluted in PBS and the final volumes of the samples were constant."}, "[1]": {"conditions": "1.49 mM preincubation and pyruvate 1.33 mM"}},
  "note": "Entries after “also recorded” stand apart in the source; their conditions may differ. Read-outs that look alike come from different tables or passages of the source.",
  "data": [
    {"smiles": "Nc1cc(C[C@H](N)C(=O)O)ccc1O", "note": "[3-aminotyrosine, 3-amino-L-tyrosine]", "values": [
      {"measurement": "CL (counts/30 s)", "setting": "porcine RBCs; [1]", "value": "964 ± 230", "unit": "counts/30 s"},
      {"measurement": "Percent difference from control", "setting": "porcine RBCs; [1]", "value": 9, "unit": "%"},
      {"measurement": "Lu-BSA binding above the 37° C. control", "setting": "porcine RBCs; 1.49 mM with hydrogen peroxide 11.7 mM, 37° C.", "value": "≤ 14", "unit": "%"},
      {"measurement": "CL (30 s)", "setting": "porcine RBCs; 1.49 mM with hydrogen peroxide 11.7 mM, 37° C., 30 min", "value": "663 ± 145", "unit": "counts/30 s"},
      {"measurement": "Percent difference from control", "setting": "porcine RBCs; 1.49 mM with hydrogen peroxide 11.7 mM, 37° C., 30 min, vs 4° C. control", "value": 74, "unit": "%"},
      {"measurement": "CL (30 s)", "setting": "porcine RBCs; 1.49 mM, 45° C., 30 min", "value": "550 ± 126", "unit": "counts/30 s"},
      {"measurement": "CL (counts/30 s)", "setting": "porcine RBCs; 1.49 mM, preincubated at 4° C. for 72 h, RBCs 72 hours post collection", "value": "794 ± 156", "unit": "counts/30 s"},
      {"measurement": "activation at 1490 µM", "setting": "porcine RBCs; 0.5 h, 1.49 mM, 45° C., 30 min, vs 4° C. control", "value": 45, "unit": "%"},
      {"measurement": "activation at 1490 µM", "setting": "porcine RBCs; 72 h, 1.49 mM, preincubated at 4° C. for 72 h", "value": -10, "unit": "%"},
      {"measurement": "inhibition at 1490 µM", "setting": "porcine RBCs; 1.49 mM, hydrogen peroxide 11.7 mM, 37° C., read-out: inhibition of Lu-BSA binding induced by hydrogen peroxide", "value": 51, "unit": "%"},
      {"measurement": "inhibition at 1490 µM", "setting": "porcine RBCs; RBCs stored at 4° C. in 1.49 mM for 72 hours, read-out: less Lu-BSA bound than RBCs stored in PBS", "value": 10, "unit": "%"},
      {"measurement": "protection from the effects of pyruvate (Lu-BSA binding), in words", "setting": "porcine RBCs; cells preincubated in 1.49 mM, then pyruvate 1.33 mM", "value": "protected them from the effects of pyruvate"},
      {"measurement": "Percent difference from controls (corrected), 4° C.", "setting": "pig RBCs; 74 μM, 48° C. 30 min", "value": -0.8, "unit": "%"},
      {"measurement": "Percent difference from controls (corrected), 48° C.", "setting": "pig RBCs; 74 μM, 48° C. 30 min", "value": -38.3, "unit": "%"},
      {"measurement": "410 nm absorbance, Actual", "setting": "pig RBCs; 74 μM, 48° C. 30 min, RBCs 20 days post collection, 1.4×10^9 per ml", "value": "0.491 ± 0.032"},
      {"measurement": "410 nm absorbance, Corrected", "setting": "pig RBCs; 74 μM, 48° C. 30 min, corrected for RBC dilution", "value": 0.368},
      {"measurement": "effect on thermal hemolysis, in words", "setting": "pig RBCs; 74 μM, 48° C. for 30 min", "value": "suppressed the thermal hemolysis to the level of the 4 °C control; also recorded: powerful inhibitor"},
      {"measurement": "effect on thermal hemolysis, in words", "setting": "pig RBCs; 1.49 mM, 45° C.", "value": "did not significantly inhibit"},
      {"measurement": "hemolysis, optical density of supernatants (1:2 dilution) at 410 nm", "setting": "pig RBCs; 3-amino-L-tyrosine and H2O2 at 37° C., 4° C. control 0.243±0.004", "value": "0.261±0.007"},
      {"measurement": "hemolytic value", "setting": "pig RBCs; preincubation with 3-amino-L-tyrosine alone (1.49 mM, 4° C., 72 hours)", "value": "0.452±0.02"},
      {"measurement": "spontaneous hemolysis reading", "setting": "pig RBCs; pyruvate and 3-amino-L-tyrosine, 37° C.", "value": "0.326±0.03"}
    ]}
  ]
}
